# Test results taken from patent US20150252370A1, “USE OF ATX INHIBITORS FOR TREATMENT OR PREVENTION OF INFLUENZA VIRUS A INFECTIONS” (Academia Sinica, priority 2014, published 2015).
# Entries after “also recorded” stand apart in the source; their conditions may differ.
# How the values were obtained:
# [1] = tested on: Influenza A virus (IAV) (A/WSN/33, H1N1); type: cell-based
# human AXL = biological target: T1, human AXL (Homo sapiens, UniProt P30530); type: cell-based
# T1 construct: Human AXL (NM_021913.4) were PCR amplified using the primers human AXL forward; expressed in transfected cells
# T1 sequence (P30530 26-894): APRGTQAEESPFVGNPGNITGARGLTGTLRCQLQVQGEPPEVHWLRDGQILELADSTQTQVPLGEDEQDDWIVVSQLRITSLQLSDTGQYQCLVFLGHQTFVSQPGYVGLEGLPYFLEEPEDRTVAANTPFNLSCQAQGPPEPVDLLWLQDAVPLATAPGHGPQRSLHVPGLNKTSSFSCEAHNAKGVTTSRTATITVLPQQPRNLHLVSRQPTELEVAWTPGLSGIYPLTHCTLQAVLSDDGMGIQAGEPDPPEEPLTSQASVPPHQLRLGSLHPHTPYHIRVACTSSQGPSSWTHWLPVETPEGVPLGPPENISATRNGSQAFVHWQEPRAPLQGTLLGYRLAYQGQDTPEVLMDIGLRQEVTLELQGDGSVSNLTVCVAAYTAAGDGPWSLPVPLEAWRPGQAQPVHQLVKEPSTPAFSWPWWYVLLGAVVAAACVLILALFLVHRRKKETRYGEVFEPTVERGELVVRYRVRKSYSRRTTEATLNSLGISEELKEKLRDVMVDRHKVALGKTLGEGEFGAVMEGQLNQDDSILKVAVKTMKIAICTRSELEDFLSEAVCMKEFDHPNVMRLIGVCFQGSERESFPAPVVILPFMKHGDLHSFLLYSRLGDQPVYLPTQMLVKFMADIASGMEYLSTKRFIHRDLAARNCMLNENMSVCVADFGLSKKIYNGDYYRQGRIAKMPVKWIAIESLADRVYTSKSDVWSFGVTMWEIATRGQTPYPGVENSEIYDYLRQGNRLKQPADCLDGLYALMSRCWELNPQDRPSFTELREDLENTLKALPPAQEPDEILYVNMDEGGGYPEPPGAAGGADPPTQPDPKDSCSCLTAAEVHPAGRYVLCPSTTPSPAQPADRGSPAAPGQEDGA
# metastatic breast cancer = details: mouse models of metastatic breast cancer; cited from earlier work
smiles,measurement,setting,value
"Nc1nc(Nc2ccc3c(c2)CCC(N2CCCC2)CC3)nn1-c1cc2c(nn1)-c1ccccc1CCC2 (stereo not shown) [R428, 1-(6,7-dihydro-5H-benzo[6,7]cyclohepta[1,2-c]pyridazin-3-yl)-N3-(7-(pyrrolidin-1-yl)-6,7,8,9-tetrahydro-5H-benzo[7]annulen-2-yl)-1H-1,2,4-triazole-3,5-diamine]",IAV replication (NP and NS1 protein expression),[1],blocked virus infection; also recorded: significantly inhibited influenza A virus infection; also recorded: inhibited IAV replication
same,time of addition at which R428 inhibits IAV replication,[1],"before or during the first hour, but not later"
same,AXL autophosphorylation stimulated by Gas6,human AXL,block autophosphorylation
same,tumor spread and survival,metastatic breast cancer,block tumor spread and prolong survival
